Data from patent publication US20250270213A1, “PI3Ka INHIBITORS” (Synnovation Therapeutics, Inc., priority 2022, published 2025).

Tested on: T47D (PIK3CA H1047R) cells
Assay: pS473 AKT assay with 2.5% FBS, T47D cells
Type: cell-based
Settings: Homo sapiens, pSer473 AKT, DMEM with 2.5% FBS, 2 h treatment, read-out: T47D_IC50
How it was run: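 In-cell chemiluminescent ELISA of AKT Ser473 phosphorylation, using anti-pSer473 primary and HRP secondary antibodies on fixed cells. T47D (PIK3CA H1047R) cells had 2 h of compound treatment in DMEM containing 2.5% FBS; IC50 derived from dose-response.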

IC50, < 1000 nM:
CCn1ncc2c3c(C(CN4CCN(C)CC4)Nc4ccc(Cl)nc4-c4cnn(C)c4)cc(C)cc3c(=O)n(C)c21 (stereo not shown) [Compound 334, 9-(1-((6-Chloro-2-(1-methyl-1H-pyrazol-4-yl)pyridin-3-yl)amino)-2-(4-methylpiperazin-1-yl)ethyl)-3-ethyl-4,7-dimethyl-3,4-dihydro-5H-pyrazolo[3,4-c]isoquinolin-5-one]
Cc1cc(C(C)Nc2ccc(Cl)nc2-c2noc(=O)[nH]2)c2c(c1)c(=O)n(C)c1c2cnn1C1CCCC1 (stereo not shown) [Compound 61, 3-(6-Chloro-3-((1-(3-cyclopentyl-4,7-dimethyl-5-oxo-4,5-dihydro-3H-pyrazolo[3,4-c]isoquinolin-9-yl)ethyl)amino)pyridin-2-yl)-1,2,4-oxadiazol-5(4H)-one]
[2H]C([2H])([2H])n1c(=O)c2cc(C)cc(C(C)Nc3ccc(Cl)nc3-c3noc(=O)[nH]3)c2c2cnn(CC)c21 (stereo not shown) [Example 227, 3-(6-Chloro-3-((1-(3-ethyl-7-methyl-4-(methyl-d3)-5-oxo-4,5-dihydro-3H-pyrazolo[3,4-c]isoquinolin-9-yl)ethyl)amino)pyridin-2-yl)-1,2,4-oxadiazol-5(4H)-one]
[2H]C([2H])([2H])n1c(=O)c2cc(C)cc(C(C)Nc3ccc(Cl)nc3-c3cnn(C)c3)c2c2cnn(C3CCN(CCO)C3)c21 (stereo not shown) [Compound 140, 9-(1-((6-chloro-2-(1-methyl-1H-pyrazol-4-yl)pyridin-3-yl)amino)ethyl)-3-(1-(2-hydroxyethyl)pyrrolidin-3-yl)-7-methyl-4-(methyl-d3)-3,4-dihydro-5H-pyrazolo[3,4-c]isoquinolin-5-one]
CC(Nc1ccc(Cl)nc1-c1cnn(C)c1)c1cc(C#N)cc2c(=O)n(C)c3c(cnn3C3CCN(C)CC3)c12 (stereo not shown) [Example 198, 9-(1-((6-Chloro-2-(1-methyl-1H-pyrazol-4-yl)pyridin-3-yl)amino)ethyl)-4-methyl-3-(1-methylpiperidin-4-yl)-5-oxo-4,5-dihydro-3H-pyrazolo[3,4-c]isoquinoline-7-carbonitrile]
Cc1cc(C(C)Nc2ccc(Cl)nc2-c2cnn(C3CCOCC3)c2)c2c(c1)c(=O)n1c3c2cnn3CCC1 (stereo not shown) [Compound 299, 10-(1-((6-chloro-2-(1-(tetrahydro-2H-pyran-4-yl)-1H-pyrazol-4-yl)pyridin-3-yl)amino)ethyl)-8-methyl-4,5-dihydro-3H,6H-2,2a,5a-triazaaceanthrylen-6-one]
CC(Nc1ccc(Cl)nc1-c1noc(=O)[nH]1)c1cc(Cl)cc2c(=O)n(C)c3c(cnn3CC3CC3)c12 (stereo not shown) [Compound 64, 3-(6-Chloro-3-((1-(7-chloro-3-(cyclopropylmethyl)-4-methyl-5-oxo-4,5-dihydro-3H-pyrazolo[3,4-c]isoquinolin-9-yl)ethyl)amino)pyridin-2-yl)-1,2,4-oxadiazol-5(4H)-one]
CCn1ncc2c3c(C(C)Nc4ccc(Cl)nc4-c4ccc(C(=O)O)cc4)cc(C)cc3c(=O)n(C)c21 (stereo not shown) [Compound 47, 4-(6-chloro-3-((1-(3-ethyl-4,7-dimethyl-5-oxo-4,5-dihydro-3H-pyrazolo[3,4-c]isoquinolin-9-yl)ethyl)amino)pyridin-2-yl) benzoic acid]
Cc1cc(C(CO)Nc2ccc(Cl)nc2-c2nnco2)c2c(c1)c(=O)n1c3c2cnn3CCC1 (stereo not shown) [Compound 331, 10-(1-((6-chloro-2-(1,3,4-oxadiazol-2-yl)pyridin-3-yl)amino)-2-hydroxyethyl)-8-methyl-4,5-dihydro-3H,6H-2,2a,5a-triazaaceanthrylen-6-one]
CCn1ncc2c3c(C(C)Nc4ccc(Cl)nc4-c4ccc(C(=O)NC)nc4)cc(C)cc3c(=O)n(CC(F)F)c21 (stereo not shown) [Example 240, 6-chloro-3-((1-(4-(2,2-difluoroethyl)-3-ethyl-7-methyl-5-oxo-4,5-dihydro-3H-pyrazolo[3,4-c]isoquinolin-9-yl)ethyl)amino)-N-methyl-[2,3′-bipyridine]-6′-carboxamide]
CCn1c(=O)c2cc(C)cc(C(C)Nc3ccc(Cl)nc3-c3ccc(C(=O)NC)nc3)c2c2cnn(-c3ccccn3)c21 (stereo not shown) [Example 271, 6-chloro-3-((1-(4-ethyl-7-methyl-5-oxo-3-(pyridin-2-yl)-4,5-dihydro-3H-pyrazolo[3,4-c]isoquinolin-9-yl)ethyl)amino)-N-methyl-[2,3′-bipyridine]-6′-carboxamide]
CCn1c(=O)c2cc(C)cc(C(C)Nc3ccc(Cl)nc3-c3ncn(C)n3)c2c2cnn(CCO)c21 (stereo not shown) [Example 261, 9-[1-[[6-Chloro-2-(1-methyl-1,2,4-triazol-3-yl)-3-pyridyl]amino]ethyl]-4-ethyl-3-(2-hydroxyethyl)-7-methyl-pyrazolo[3,4-c]isoquinolin-5-one]
CNC(=O)c1ccc(-c2nc(Cl)ccc2NC(C)c2cc(C)cc3c(=O)n(C)c4c(cnn4CCO)c23)cn1 (stereo not shown) [Example 253, 5-[6-Chloro-3-[1-[3-(2-hydroxyethyl)-4,7-dimethyl-5-oxo-pyrazolo[3,4-c]isoquinolin-9-yl]ethylamino]-2-pyridyl]-N-methyl-pyridine-2-carboxamide]
Cc1cc(C(CO)Nc2ccc(Cl)nc2-c2cnn(C)c2)c2c(c1)c(=O)n1c3c2cnn3CCC1 (stereo not shown) [Compound 329, 10-(1-((6-chloro-2-(1-methyl-1H-pyrazol-4-yl)pyridin-3-yl)amino)-2-hydroxyethyl)-8-methyl-4,5-dihydro-3H,6H-2,2a,5a-triazaaceanthrylen-6-one]
Cc1cc(C(C)Nc2ccc(Cl)nc2-c2cnn(C)c2)c2c(c1)c(=O)n(C)c1c(C(=O)N(C)C)ncn21 (stereo not shown) [Compound 120, 9-(1-((6-Chloro-2-(1-methyl-1H-pyrazol-4-yl)pyridin-3-yl)amino)ethyl)-N,N,4,7-tetramethyl-5-oxo-4,5-dihydroimidazo[1,5-a]quinazoline-3-carboxamide]
Cc1cc(C(C)Nc2ccc(Cl)nc2C(=O)O)c2c(c1)c(=O)n(C)c1nn(-c3ccccc3C)cc21 (stereo not shown) [Compound I-31, 6-Chloro-3-((1-(4,7-dimethyl-5-oxo-2-(o-tolyl)-4,5-dihydro-2H-pyrazolo[3,4-c]isoquinolin-9-yl)ethyl)amino)picolinic acid]
Cc1cc(C(C)Nc2ccc(Cl)nc2-c2ncn(CCO)n2)c2c(c1)c(=O)n(C)c1c2cnn1C1CN(C)C1 (stereo not shown) [Compound 83, 9-(1-((6-chloro-2-(1-(2-hydroxyethyl)-1H-1,2,4-triazol-3-yl)pyridin-3-yl)amino)ethyl)-4,7-dimethyl-3-(1-methylazetidin-3-yl)-3,4-dihydro-5H-pyrazolo[3,4-c]isoquinolin-5-one]
Cc1cc(C(C)Nc2ccc(Cl)nc2-c2ncn(C)n2)c2c(c1)c(=O)n(C)c1c2cnn1C1CCN(CCO)CC1 (stereo not shown) [Compound 177, 9-[1-[[6-Chloro-2-(1-methyl-1,2,4-triazol-3-yl)-3-pyridyl]amino]ethyl]-3-[1-(2-hydroxyethyl)-4-piperidyl]-4,7-dimethyl-pyrazolo[3,4-c]isoquinolin-5-one]
CCn1ncc2c3c(C(C)Nc4ccc(Cl)nc4-c4ncn(C)n4)cc(C)cc3c(=O)n(CCO)c21 (stereo not shown) [Example 224, 9-[1-[[6-Chloro-2-(1-methyl-1,2,4-triazol-3-yl)-3-pyridyl]amino]ethyl]-3-ethyl-4-(2-hydroxyethyl)-7-methyl-pyrazolo[3,4-c]isoquinolin-5-one]
CCn1ncc2c3c(C(C)Nc4ccc(Cl)nc4-c4cnn(C)c4C)cc(C)cc3c(=O)n(C)c21 (stereo not shown) [Compound 49, 9-(1-((6-chloro-2-(1,5-dimethyl-1H-pyrazol-4-yl)pyridin-3-yl)amino)ethyl)-3-ethyl-4,7-dimethyl-3,4-dihydro-5H-pyrazolo[3,4-c]isoquinolin-5-one]
CCn1c(=O)c2cc(C)cc(C(C)Nc3ccc(Cl)nc3-c3ncn(C)n3)c2c2cnn(C3CCN(S(C)(=O)=O)C3)c21 (stereo not shown) [Compound 148, 9-(1-((6-Chloro-2-(1-methyl-1H-1,2,4-triazol-3-yl)pyridin-3-yl)amino)ethyl)-4-ethyl-7-methyl-3-(1-(methylsulfonyl)pyrrolidin-3-yl)-3,4-dihydro-5H-pyrazolo[3,4-c]isoquinolin-5-one]
COc1ccc(-c2nc(Cl)ccc2NC(C)c2cc(C)cc3c(=O)n4c5c(cnn5CCC4)c23)cn1 (stereo not shown) [Compound 311, 10-(1-((6-chloro-6′-methoxy-[2,3′-bipyridin]-3-yl)amino)ethyl)-8-methyl-4,5-dihydro-3H,6H-2,2a,5a-triazaaceanthrylen-6-one]
CCNC(=O)N1CCC(Cn2ncc3c4c(C(C)Nc5ccc(Cl)nc5-c5ccncc5F)cc(C)cc4c(=O)n(C)c32)CC1 (stereo not shown) [Compound 109, 4-((9-(1-((6-Chloro-3′-fluoro-[2,4′-bipyridin]-3-yl)amino)ethyl)-4,7-dimethyl-5-oxo-4,5-dihydro-3H-pyrazolo[3,4-c]isoquinolin-3-yl)methyl)-N-ethylpiperidine-1-carboxamide]
Cc1cc(C(C)Nc2ccc(Cl)nc2-c2ccc3c(cnn3C)c2)c2c(c1)c(=O)n(C)c1c2cnn1C1CN(C)C1 (stereo not shown) [Compound 88, 9-(1-((6-chloro-2-(1-methyl-1H-indazol-5-yl)pyridin-3-yl)amino)ethyl)-4,7-dimethyl-3-(1-methylazetidin-3-yl)-3,4-dihydro-5H-pyrazolo[3,4-c]isoquinolin-5-one]
CCn1ncc2c3c(C(C)Nc4ccccc4C(=O)O)cc(C)cc3c(=O)n(CC)c21 (stereo not shown) [Compound I-23, 2-((1-(3,4-Diethyl-7-methyl-5-oxo-4,5-dihydro-3H-pyrazolo[3,4-c]isoquinolin-9-yl)ethyl)amino)benzoic acid]
